Measurements as given in article PMC5247395 (EJNMMI Research, 2017).

What was measured:
[1] = n-octanol/PBS distribution coefficient (shake-flask); type: physicochemical; conditions: n-octanol/PBS pH 7.4, shake-flask
Procedure: The distribution coefficients (logD values) of the radioligands were determined by a shake-flask method using liquid-liquid extraction followed by phase separation, as previously reported (Additional file 1). In brief, the PSMA ligands were labeled at a specific activity of 5 MBq/nmol. […] The vials were vortexed vigorously for 1 min and then centrifuged for 6 min for phase separation. The concentration of radioactivity in a defined volume of each layer was measured in a γ-counter (Perkin Elmer, Wallac Wizard 1480). The distribution coefficients were expressed as the logarithm of the ratio of counts per minute (cpm) measured in the n-octanol phase to the cpm measure in the PBS phase. The values are reported as the average of at least three independent measurements (± standard deviation, SD), each performed with five replicates. Data were analyzed for significance using a one-way ANOVA test (GraphPad Prism software, version 7). A p value of <0.05 was considered as statistically significant.

PSMA = target: T1, PSMA (Homo sapiens, UniProt Q04609); assay: Saturation binding assay on PC-3 PIP cells (PSMA affinity, KD)
T1 construct: expressed in transfected cells; host or cells: PC-3 PIP cells (PSMA-positive subline of human PC-3 prostate cancer cells), provided by Prof; Martin Pomper, Johns Hopkins
Procedure: Determination of the PSMA affinity was performed by saturation binding assays using PC-3 PIP cells and different concentrations of ^nat/44Sc-, ^nat/177Lu-, ^nat/68Ga-PSMA-617, or ^nat/68Ga-PSMA-11, respectively (Additional file 1).
Determination of the KD values was performed by saturation binding assays using PSMA^pos PC-3 PIP cells. After successful radiolabeling of the PSMA ligands, a 2.5-fold molar excess of the corresponding cold metal was added and the reaction mixture was incubated for another 10 min at 95 °C. Quality control was performed again after reaction of the radioligands with the “cold” metal as described in the main manuscript.
The cells were seeded in 48-well-plates (8 x 10^5 cells in 500 uL RPMI medium/well) allowing adhesion and growth overnight at 37 °C and 5% CO2. For the entire experiment, the well-plates were kept on ice. After removal of the supernatant, the cells were washed once with ice-cold PBS pH 7.4 prior to the addition of different concentrations (1 nM-2 µM) of either ^nat/44Sc-, ^nat/177Lu-, ^nat/67/68Ga-PSMA-617 or ^nat/67/68Ga-PSMA-11 in ice-cold RPMI medium without supplements. For the determination of non-specific binding, cell samples were incubated with 2-phosphonomethyl pentanedioic acid (2-PMPA, 200 μM). The well-plates were incubated for 30 min at 4 °C. Then, the supernatants were removed and the cells washed twice with ice-cold PBS followed by addition of NaOH (1 M, 600 µL) to each well. The cell suspensions were transferred to 4 mL tubes for measurement in a γ-counter (Wallac Wizard 1480, Perkin Elmer). The KD values were determined by plotting specific-binding (total binding minus unspecific binding) against the molar concentration of the added radioligands followed by nonlinear regression analysis using GraphPad Prism 7 software.

[2] = test system: PC-3 PIP/flu tumor-bearing mice; assay: PET/CT and SPECT/CT imaging of PC-3 PIP/flu tumor-bearing mice; type: in vivo; conditions: 2 h after injection
Procedure: PET/CT scans were performed using a small-animal bench-top PET/CT scanner (G8, Sofie Biosciences, Culver City, California, USA, and Perkin Elmer, Massachusetts, USA) and a small-animal SPECT/CT scanner (NanoSPECT/CT^TM, Mediso Medical Imaging Systems, Budapest, Hungary), respectively (Additional file 1). During the scans, the mice were anesthetized with a mixture of isoflurane and oxygen.
The PET scans were followed by a CT of 1.5 min. The SPECT scan of 45 min duration was performed 2 h after injection of ^177Lu-PSMA-617 (~50 MBq, 1 nmol) followed by a CT of 7.5 min. Reconstruction of the acquired data was performed by using the software of the respective scanner.
All images were prepared using VivoQuant post-processing software (version 2.10, inviCRO Imaging Services and Software, Boston USA). A Gauss post-reconstruction filter (full width at half maximum = 1 mm) was applied to the images, which were presented with the scale adjusted to allow visualization of the most important organs and tissues, usually by cutting 0.5–1% of the lower scale.
PET/CT scans were performed with a small-animal bench-top PET/CT scanner (G8, Sofie Biosciences, Culver City, California, U.S. and Perkin Elmer, Massachusetts, U.S.). The energy window ranged from 150 keV to 650 keV. […]

[3] = test system: PC-3 PIP/flu tumor-bearing mice; assay: Biodistribution in PC-3 PIP/flu tumor-bearing mice; conditions: i.v.; for PC-3 flu Tumor: PSMA^neg xenograft; for PC-3 PIP Tumor: PSMA^pos xenograft
Procedure: In vivo experiments were approved by the local veterinarian department and conducted in accordance with the Swiss law of animal protection. All mice were obtained from Charles River Laboratories (Sulzfeld, Germany), at the age of 5–6 weeks. Female, athymic nude Balb/c mice were subcutaneously inoculated with PC-3 PIP cells (6 × 10^6 cells in 100 μL Hank’s balanced salt solution (HBSS) with Ca^2+/Mg^2+) on the right shoulder and with PC-3 flu cells (5 × 10^6 cells in 100 μL HBSS with Ca^2+/Mg^2+) on the left shoulder 2 weeks before the performance of the experiments.
Mice were sacrificed at different time points post injection (p.i.) of the radioligands. Selected tissues and organs were collected, weighed and measured using a γ-counter. The results were decay-corrected and listed as a percentage of the injected activity per gram of tissue mass (% IA/g).

T1 sequence (Q04609 whole entry): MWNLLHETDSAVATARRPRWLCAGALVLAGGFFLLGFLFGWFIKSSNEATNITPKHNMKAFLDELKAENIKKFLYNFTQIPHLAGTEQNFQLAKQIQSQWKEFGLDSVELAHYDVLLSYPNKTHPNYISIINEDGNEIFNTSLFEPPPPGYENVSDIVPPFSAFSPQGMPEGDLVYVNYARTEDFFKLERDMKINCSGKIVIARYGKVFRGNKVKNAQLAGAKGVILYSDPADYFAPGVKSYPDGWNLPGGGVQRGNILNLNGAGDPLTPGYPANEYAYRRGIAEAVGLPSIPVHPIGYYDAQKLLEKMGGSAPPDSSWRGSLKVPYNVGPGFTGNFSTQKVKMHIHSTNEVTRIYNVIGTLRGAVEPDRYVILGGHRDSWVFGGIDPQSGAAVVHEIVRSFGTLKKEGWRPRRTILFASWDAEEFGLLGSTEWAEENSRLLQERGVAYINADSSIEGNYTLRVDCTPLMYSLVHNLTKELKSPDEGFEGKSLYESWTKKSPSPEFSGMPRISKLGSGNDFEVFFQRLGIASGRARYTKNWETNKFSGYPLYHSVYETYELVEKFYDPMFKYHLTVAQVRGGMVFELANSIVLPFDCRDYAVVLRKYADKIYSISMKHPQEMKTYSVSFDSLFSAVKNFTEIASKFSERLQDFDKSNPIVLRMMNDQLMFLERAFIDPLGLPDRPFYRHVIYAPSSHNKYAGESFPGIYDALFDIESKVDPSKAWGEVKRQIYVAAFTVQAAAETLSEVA

In the case of `O=C([O-])CN(CCN(CC(=O)[O-])Cc1cc(CCC(=O)NCCCCCC(=O)NCCCC[C@H](NC(=O)N[C@@H](CCC(=O)O)C(=O)O)C(=O)O)ccc1[O-])Cc1cc(CCC(=O)O)ccc1[O-].[68Ga+3]` [^68Ga-PSMA-11], the LogD values [1] is reported as −4.82 ± 0.07, the Kd (PSMA; 30 min at 4 °C, saturation binding) is reported as 0.087 ± 0.027 µM and the “Relative PSMA-binding affinity” value (PSMA; inverse molar ratio of average KD values, ^177Lu-PSMA-617 set to 1) is reported as 0.4. For the same compound, the “accumulation in the kidneys on PET/CT images vs. the other radioligands” value [2] was “significantly higher extent”, the Blood ([3]; 15 min p.i.) was 5.05 ± 0.58 % IA/g and the Bone ([3]; 15 min p.i.) was 1.85 ± 0.20 % IA/g. For the same compound, the Heart ([3]; 15 min p.i.) was 2.45 ± 0.29 % IA/g, the Intestines ([3]; 15 min p.i.) was 1.42 ± 0.07 % IA/g and the Kidneys ([3]; 15 min p.i.) was 74.7 ± 7.02 % IA/g. It also gave a Liver ([3]; 15 min p.i.) of 2.00 ± 0.32 % IA/g, a Lung ([3]; 15 min p.i.) of 3.87 ± 0.22 % IA/g and a Muscle ([3]; 15 min p.i.) of 1.21 ± 0.11 % IA/g. The Salivary glands ([3]; 15 min p.i.) was 2.73 ± 0.27 % IA/g, the Spleen ([3]; 15 min p.i.) was 5.33 ± 1.78 % IA/g and the Stomach ([3]; 15 min p.i.) was 1.42 ± 0.15 % IA/g. For the same compound, the “PC-3 flu Tumor” value ([3]; 15 min p.i.) was 2.19 ± 0.05 % IA/g, the “PC-3 PIP Tumor” value ([3]; 15 min p.i.) was 31.5 ± 13.0 % IA/g and the Blood ([3]; 30 min p.i.) was 2.55 ± 0.72 % IA/g. The Bone ([3]; 30 min p.i.) was 0.81 ± 0.14 % IA/g, the Heart ([3]; 30 min p.i.) was 1.31 ± 0.19 % IA/g and the Intestines ([3]; 30 min p.i.) was 1.20 ± 0.24 % IA/g. For the same compound, the Kidneys ([3]; 30 min p.i.) was 86.7 ± 14.6 % IA/g, the Liver ([3]; 30 min p.i.) was 1.55 ± 0.04 % IA/g and the Lung ([3]; 30 min p.i.) was 2.23 ± 0.33 % IA/g. It also gave a Muscle ([3]; 30 min p.i.) of 0.67 ± 0.06 % IA/g, a Salivary glands ([3]; 30 min p.i.) of 1.59 ± 0.18 % IA/g and a Spleen ([3]; 30 min p.i.) of 4.76 ± 1.13 % IA/g. For the same compound, the Stomach ([3]; 30 min p.i.) was 0.85 ± 0.19 % IA/g, the “PC-3 flu Tumor” value ([3]; 30 min p.i.) was 1.04 ± 0.17 % IA/g and the “PC-3 PIP Tumor” value ([3]; 30 min p.i.) was 49.3 ± 4.97 % IA/g. The Blood ([3]; 2 h p.i.) was 0.08 ± 0.01 % IA/g, the Bone ([3]; 2 h p.i.) was 0.06 ± 0.00 % IA/g and the Heart ([3]; 2 h p.i.) was 0.18 ± 0.03 % IA/g. For the same compound, the Intestines ([3]; 2 h p.i.) was 0.95 ± 0.86 % IA/g, the Kidneys ([3]; 2 h p.i.) was 58.8 ± 7.62 % IA/g and the Liver ([3]; 2 h p.i.) was 0.56 ± 0.04 % IA/g. It also gave a Lung ([3]; 2 h p.i.) of 0.31 ± 0.10 % IA/g, a Muscle ([3]; 2 h p.i.) of 0.06 ± 0.01 % IA/g and a Salivary glands ([3]; 2 h p.i.) of 0.39 ± 0.01 % IA/g. For the same compound, the Spleen ([3]; 2 h p.i.) was 2.18 ± 0.38 % IA/g, the Stomach ([3]; 2 h p.i.) was 0.35 ± 0.17 % IA/g and the “PC-3 flu Tumor” value ([3]; 2 h p.i.) was 0.13 ± 0.02 % IA/g. The “PC-3 PIP Tumor” value ([3]; 2 h p.i.) was 40.0 ± 2.55 % IA/g.
